Test results reported in PubChem BioAssay AID743165 (Broad Institute, 2013).

Test system: Mycobacterium tuberculosis replicating, CFU imaging
Assay: IC90 against replicating M. tuberculosis, dose response, CFU by imaging, dry powder, 7108-03 (AID 743165)

SMILES | IC90
CCOC(=O)NC(=O)c1ccsc1NC(=O)c1nc2ccccc2s1 | < 8 µM
Cn1c(NC(=O)c2ccccc2)nc2ccccc21 | < 48 µM
